# Measurements taken from patent publication US6737383B1, “Herbicidal oxadiazolidines” (priority 1999, dated 2004).
# Key:
# black nightshade = assay: Test E black nightshade; format: in vivo, Solanum nigra; settings: Postemergence
# Procedure, shortened: (§1)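 Greenhouse-grown plants are treated (postemergence: 1- to 4-leaf stage, sandy loam/potting mix 60:40), then evaluated visually versus untreated controls some 21 to 28 days later.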
# chickweed [1] = assay: Test E chickweed; format: in vivo, Stellaria media; settings: Postemergence
# Procedure, shortened: as §1
# common poppy = assay: Test E common poppy; format: in vivo, Papaver rhoeas; settings: Postemergence
# Procedure, shortened: as §1
# field violet = assay: Test E field violet; format: in vivo, Viola arvensis; settings: Postemergence
# Procedure: (§2) Compounds evaluated in this test were formulated in a non-phytotoxic solvent mixture which included a surfactant and applied to plants that were in the 1- to 4-leaf stage (postemergence application). A mixture of sandy loam soil and greenhouse potting mix in a 60:40 ratio was used for the postemergence test.
# (§3) Plantings of these crops and weed species were adjusted to produce plants of appropriate size for the postemergence test. All plant species were grown using normal greenhouse practices. Crop and weed species include annual bluegrass (Poa annua), blackgrass (Alopecurus myosuroides), black nightshade (Solanum nigra), chickweed (Stellaria media), common poppy (Papaver rhoeas), deadnettle (Lamium amplexicaule), downy brome (Bromus tectorum), field violet (Viola arvensis), galium (Galium aparine), green foxtail (Setaria viridis), Italian ryegrass (Lolium multiflorum), jointed goatgrass (Aegilops cylindrica), kochia (Kochia scoparia), lambsquarters (Chenopodium album), littleseed canarygrass (Phalaris minor), rape (Brassica napus), redroot pigweed (Amaranthus retroflexus), Russian thistle (Salsola kali), scentless chamomile (Matricaria inodora), spring barley (Hordeum vulgare), sugar beet (Beta vulgaris), sunflower (Helianthus annuus), ivyleaf speedwell (Veronica hederaefolia), spring wheat (Triticum aestivum), winter wheat (Triticum aestivum), wild buckwheat (Polygonum convolvulus), wild mustard (Sinapis arvensis), wild oat (Avena fatua), windgrass (Apera spica-venti) and winter barley (Hordeum vulgare).
# (§4) Treated plants and untreated controls were maintained in a greenhouse for approximately 21 to 28 days, after which all treated plants were compared to untreated controls and visually evaluated. […] A dash response (-) means no test result.
# Italian ryegrass = assay: Test E Italian ryegrass; format: in vivo, Lolium multiflorum; settings: Postemergence
# Procedure, shortened: as §1
# jointed goatgrass = assay: Test E jointed goatgrass; format: in vivo, Aegilops cylindrica; settings: Postemergence
# Procedure: as §2, §3, §4
# kochia [2] = assay: Test E kochia; format: in vivo, Kochia scoparia; settings: Postemergence
# Procedure: as §2, §3, §4
# scentless chamomile = assay: Test E scentless chamomile; format: in vivo, Matricaria inodora; settings: Postemergence
# Procedure: as §2, §3, §4
# spring barley [3] = assay: Test E spring barley; format: in vivo, Hordeum vulgare; settings: Postemergence
# Procedure: as §2, §3, §4
# spring wheat [4] = assay: Test E spring wheat; format: in vivo, Triticum aestivum; settings: Postemergence
# Procedure: as §2, §3, §4
# wild mustard = assay: Test E wild mustard; format: in vivo, Sinapis arvensis; settings: Postemergence
# Procedure: […] A mixture of sandy loam soil and greenhouse potting mix in a 60:40 ratio was used for the postemergence test.
# as §3, §4
# windgrass = assay: Test E windgrass; format: in vivo, Apera spica-venti; settings: Postemergence, Rate 62 g/ha; 0 to 100 scale
# Procedure: as §2
# Plantings of these crops and weed species were adjusted to produce plants of appropriate size for the postemergence test. All plant species were grown using normal greenhouse practices. […]
# Treated plants and untreated controls were maintained in a greenhouse for approximately 21 to 28 days, after which all treated plants were compared to untreated controls and visually evaluated. […]
# chickweed [5] = assay: Test E chickweed; format: in vivo, Stellaria media; settings: Preemergence
# downy brome = assay: Test E downy brome; format: in vivo, Bromus tectorum; settings: Preemergence
# kochia [6] = assay: Test E kochia; format: in vivo, Kochia scoparia; settings: Preemergence
# littleseed canarygrass = assay: Test E littleseed canarygrass; format: in vivo, Phalaris minor; settings: Preemergence
# Russian thistle = assay: Test E Russian thistle; format: in vivo, Salsola kali; settings: Preemergence
# spring barley [7] = assay: Test E spring barley; format: in vivo, Hordeum vulgare; settings: Preemergence
# sunflower = assay: Test E sunflower; format: in vivo, Helianthus annuus; settings: Preemergence
# spring wheat [8] = assay: Test E spring wheat; format: in vivo, Triticum aestivum; settings: Preemergence
# [9] = Rate 250 g/ha, 0 to 100 scale (0 no effect, 100 complete control)
# [10] = Rate 62 g/ha, 0 to 100 scale, 0 no effect, 100 complete control
# [11] = Rate 125 g/ha, 0 to 100 scale (0 no effect, 100 complete control)
compound,measurement,setting,value
C=CCn1c(=O)on(C(=O)N(c2ccccc2)C(C)C)c1=O [Compound 93],"Plant response rating, Blk nightshade","black nightshade; Rate 62 g/ha, 0 to 100 scale",0
same,"Plant response rating, Blk nightshade","black nightshade; Rate 125 g/ha, 0 to 100 scale",0
same,"Plant response rating, Blk nightshade",black nightshade; [9],50
same,"Plant response rating, Chickweed","chickweed [1]; Rate 62 g/ha, 0 to 100 scale",0
same,"Plant response rating, Chickweed","chickweed [1]; Rate 125 g/ha, 0 to 100 scale",0
same,"Plant response rating, Chickweed",chickweed [1]; [9],0
same,"Plant response rating, Common poppy","common poppy; Rate 62 g/ha, 0 to 100 scale",0
same,"Plant response rating, Comnion poppy","common poppy; Rate 125 g/ha, 0 to 100 scale",0
same,"Plant response rating, Common poppy",common poppy; [9],0
same,"Plant response rating, Field violet","field violet; Rate 62 g/ha, 0 to 100 scale",0
same,"Plant response rating, Field violet","field violet; Rate 125 g/ha, 0 to 100 scale",0
same,"Plant response rating, Field violet",field violet; [9],0
same,"Plant response rating, I. Ryegrass","Italian ryegrass; Rate 62 g/ha, 0 to 100 scale",0
same,"Plant response rating, I. Ryegrass","Italian ryegrass; Rate 125 g/ha, 0 to 100 scale",0
same,"Plant response rating, I. Ryegrass",Italian ryegrass; [9],0
same,"Plant response rating, Jointed goatgra","jointed goatgrass; Rate 62 g/ha, 0 to 100 scale",0
same,"Plant response rating, Jointed goatgra","jointed goatgrass; Rate 125 g/ha, 0 to 100 scale",0
same,"Plant response rating, Jointed goatgra",jointed goatgrass; [9],0
same,"Plant response rating, Kochia","kochia [2]; Rate 62 g/ha, 0 to 100 scale",0
same,"Plant response rating, Kochia","kochia [2]; Rate 125 g/ha, 0 to 100 scale",0
same,"Plant response rating, Kochia",kochia [2]; [9],0
same,"Plant response rating, Scentless chamo","scentless chamomile; Rate 62 g/ha, 0 to 100 scale",0
same,"Plant response rating, Scentless chamo","scentless chamomile; Rate 125 g/ha, 0 to 100 scale",0
same,"Plant response rating, Scentless chamo",scentless chamomile; [9],0
same,"Plant response rating, Spring Barley","spring barley [3]; Rate 62 g/ha, 0 to 100 scale",0
same,"Plant response rating, Spring Barley","spring barley [3]; Rate 125 g/ha, 0 to 100 scale",0
same,"Plant response rating, Spring Barley",spring barley [3]; [9],0
same,"Plant response rating, Spring Wheat","spring wheat [4]; Rate 62 g/ha, 0 to 100 scale",0
same,"Plant response rating, Spring Wheat","spring wheat [4]; Rate 125 g/ha, 0 to 100 scale",0
same,"Plant response rating, Spring Wheat",spring wheat [4]; [9],0
same,"Plant response rating, Wild mustard","wild mustard; Rate 62 g/ha, 0 to 100 scale",0
same,"Plant response rating, Wild mustard","wild mustard; Rate 125 g/ha, 0 to 100 scale",0
same,"Plant response rating, Wild mustard",wild mustard; [9],10
same,"Plant response rating, Windgrass",windgrass,60
same,"Plant response rating, Chickweed",chickweed [5]; [10],60
same,"Plant response rating, Chickweed",chickweed [5]; [11],20
same,"Plant response rating, Chickweed","chickweed [5]; Rate 250 g/ha, 0 to 100 scale",100
same,"Plant response rating, Downy brome",downy brome; [10],40
same,"Plant response rating, Downy brome",downy brome; [11],60
same,"Plant response rating, Downy brome","downy brome; Rate 250 g/ha, 0 to 100 scale",20
same,"Plant response rating, Kochia",kochia [6]; [10],0
same,"Plant response rating, Kochia",kochia [6]; [11],0
same,"Plant response rating, Kochia","kochia [6]; Rate 250 g/ha, 0 to 100 scale",20
same,"Plant response rating, LS canarygrass",littleseed canarygrass; [10],40
same,"Plant response rating, LS canarygrass",littleseed canarygrass; [11],80
same,"Plant response rating, LS canarygrass","littleseed canarygrass; Rate 250 g/ha, 0 to 100 scale",60
same,"Plant response rating, Russian thistle",Russian thistle; [10],0
same,"Plant response rating, Russian thistle",Russian thistle; [11],0
same,"Plant response rating, Russian thistle","Russian thistle; Rate 250 g/ha, 0 to 100 scale",0
same,"Plant response rating, Spring Barley",spring barley [7]; [10],5
same,"Plant response rating, Spring Barley",spring barley [7]; [11],10
same,"Plant response rating, Spring Barley","spring barley [7]; Rate 250 g/ha, 0 to 100 scale",60
same,"Plant response rating, Sunflower",sunflower; [10],10
same,"Plant response rating, Sunflower",sunflower; [11],5
same,"Plant response rating, Sunflower","sunflower; Rate 250 g/ha, 0 to 100 scale",20
same,"Plant response rating, Spring Wheat",spring wheat [8]; [10],30
same,"Plant response rating, Spring Wheat",spring wheat [8]; [11],50
same,"Plant response rating, Spring Wheat","spring wheat [8]; Rate 250 g/ha, 0 to 100 scale",80
